These are literature values, as cited in US20080287418A1, “Extended Release Compositions and Methods for Their Manufacture” (ASTRAZENECA AB, priority 2007, published 2008).

Structures are written as SMILES.

Regarding `OCCOCCN1CCN(C2=Nc3ccccc3Sc3ccccc32)CC1` [quetiapine, 11-[4-[2-(2-hydroxyethoxy)ethyl]-1-piperazinyl]dibenzo[b,f][1,4]thiazepine], the Solubility in acid result (acid) is “soluble in acid”. The Solubility in water entry (water) was “slightly soluble in water”.
